Reference: paper PMC7450938, “Prenatal to early postnatal neurotrophic treatment prevents Alzheimer-like behavior and pathology in mice” (Alzheimer's Research & Therapy, 2020)

Tested on: 3xTg-AD mice
Test: Morris water maze
Assay type: in vivo, mouse
Details: ~4 months
Description: Pregnant 3xTg-AD and wild-type (WT) mice were treated with compound P021 in mouse chow, or as control with vehicle feed from gestational day 8 (E8) till their offspring/pups reached PND21, at which point the offspring were separated from their mother and put on normal mouse chow (Fig. 1). There were four study groups of mice, as follows: offspring of WT treated with vehicle diet (WT-Vh, n = 10), offspring of WT treated with […] diet (WT-[…], n = 17), offspring of 3xTg-AD treated with vehicle diet (3xTg-Vh, n = 12), and offspring of 3xTg-AD treated with […] diet (3xTg-[…], n = 18). Elevated plus maze, novel object recognition test, and Morris water maze were carried out consecutively from postnatal day 90 with all of mice. About 50% (4 animals/group) of the female offspring (n = 7-8 animals/group) were sacrificed at 4 months of age and the remaining 50% (3-4 animals/group) at 22 months of age. Left cerebral hemisphere homogenate was used for biochemical analysis and right cerebral hemisphere for immunohistochemical studies. We treated 2- to 3-month-old pregnant 3xTg-AD and WT mothers with compound P021 in mouse chow, or with vehicle feed as control at E8 until their offspring/pups reached PND21, at which point the offspring were separated and put on standard mouse chow (Fig. 1). Treatment was administered as 60 nmol peptide/g formulated diet (Research Diets; New Brunswick, NJ, USA). The vehicle-treated control animals received the same diet but without the peptide. On average, each mouse consumed ~ 2.7 g diet/day. The Morris water maze task was used to evaluate spatial learning and memory of the mice. A total of 57 mice were subjected to the Morris water maze task at about 4 months of age. The test was performed in a circular white pool (with a diameter of 180 cm and a height of 60 cm) filled with nontoxic white dye-tinted water and maintained at room temperature (20 ± 1 °C). The maze was designed with two virtual principal axes, with each line bisecting the maze perpendicular to the other one to divide the maze into four equal quadrants. […]

Ac-DGGL^AG-NH2 [P021, 4-mer CNTF small molecule peptide mimetic to which adamantylated glycine was added at the C-terminal]
escape latency to reach the hidden platform, acquisition phase (3xTg-AD offspring, P021 diet E8-PND21, 4 training days, three-way ANOVA treatment P = 0.1088, t test 3xTg-Vh vs 3xTg-P021 P < 0.05): did not prevent it as determined by the three-way ANOVA but showed a clear tendency as determined by the two-tailed t test
latency to first entrance into the target zone, probe trial (3xTg-AD offspring, P021 diet E8-PND21, probe 24 h after last training, 3xTg-Vh vs 3xTg-P021 P = 0.0132): decreased the latency significantly
swim speed and cued trial (among WT-Vh, WT-P021, 3xTg-Vh, 3xTg-P021 groups): no significant difference
